Data reported in US20060100258A1, “Growth promotion method” (priority 2003, published 2006).

What was measured:
Format in all cases: in vivo
chicks = assay: Effect on chick growth: weight gain after a single treatment
Protocol: FIG. 2 is a graph showing the average percentage weight increase in chicks after single dosing with Iksin at 12 μg/g in DMSO, 100 μg/g in DMSO, 200 μg/g in distilled water/Tween20 and 400 μg/g in distilled water/tween20 compared to untreated chicks.
(§1) Day-old chicks were orally administered Iksin in DMSO at 100 μg/g, 125 μg/g, 150 μg/g and 200 μg/g body weight and in Distilled Water (DW)/5% Tween-20 at 100 μg/g, 200 μg/g, 400 μg/g and 500 μg/g body weight.
Treatment with Iksin 12 μg/g DMSO, 200 and 400 μg/g DW/T20 gave a mean weight gain of 17%.

[1] = Plasma/blood levels of Iksin in chicks after a single oral dose; conditions: for peak levels (blood/plasma): observed at 48 h (FIG. 1)
Protocol: FIG. 1 is a graph showing plasma levels of Iksin in chicks after treatment with Iksin at 100 μg/g in DMSO and at 400 μg/g in distilled water/Tween20; and
as §1

day-old broiler chicks = assay: Determination of dose range: maximum tolerated oral dose in day-old broiler chicks
Protocol: as §1
The maximum tolerated oral dose of Iksin for day-old broiler chicks was 200 μg/g Iksin/DMSO and ≧500 μg/g in DW/T20.

C/C(=C\c1ccc2c(c1)OCO2)[N+](=O)[O-] [Iksin, 3,4-methylenedioxy-β-methyl-β-nitrostyrene]
weight gain in chicks (chicks; all doses and formulations, 4 days after a single treatment (FIG. 2)): increased weight gain
mean weight gain (chicks; chicks, Iksin 12 μg/g DMSO, 200 and 400 μg/g DW/T20 (mean of these groups), 4 days after a single treatment): 17%
increase in weight gain over the group of control chicks (chicks; chicks, Iksin 100 μg/g DMSO, 4 days after a single treatment): 32%
Iksin blood levels ([1]; single oral dose 12 μg/g DMSO): below the limits of detection
peak levels (blood/plasma) ([1]; single oral dose 100 μg/g DMSO): 850 µg/g
Iksin blood levels ([1]; single oral dose 200 μg/g DW): below the limits of detection
peak levels (blood/plasma) ([1]; single oral dose 400 μg/g DW): 850 µg/g
absorption from a single oral dosing ([1]; single oral dosing): Very little Iksin was absorbed
maximum tolerated oral dose (day-old broiler chicks; Iksin in DMSO): 200 µg/g
maximum tolerated oral dose (day-old broiler chicks; Iksin in DW/T20 (distilled water/5% Tween-20)): ≥ 500 µg/g
